How the values were obtained:
Test in all cases: relative viability (nuclei count vs DMSO), 5 days (fraction); higher = more cells survive
Bortezomib + Alpelisib = compound: CC(C)C[C@H](NC(=O)[C@H](Cc1ccccc1)NC(=O)c1cnccn1)B(O)O [Bortezomib] + Cc1nc(NC(=O)N2CCC[C@H]2C(N)=O)sc1-c1ccnc(C(C)(C)C(F)(F)F)c1 [Alpelisib] (partner 2 µM)
Summary of the method: (§1)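 Dosing by pin tool came one day after lung cancer cell lines were seeded in 1536-well plates, using either one drug or a fixed anchor-drug dose plus five library-drug doses (not always all listed) in √10 steps. After 5 days, nuclei were counted on 4× images. Relative viability is treated-well nuclei count divided by vehicle-well nuclei count, and values are medians of duplicate plates.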

[1] = compound: CC1=CC(=NN1)NC2=CC(=NC(=N2)/C=C/C3=CC=CC=C3)N4CCN(CC4)C + CC1(C)CCC(c2ccc(Cl)cc2)=C(CN2CCN(c3ccc(C(=O)NS(=O)(=O)c4ccc(N[C@H](CCN5CCOCC5)CSc5ccccc5)c(S(=O)(=O)C(F)(F)F)c4)cc3)CC2)C1 [Navitoclax] (partner 0.5 µM)
Summary of the method: as §1

[2] = compound: CC1=CC(=NN1)NC2=CC(=NC(=N2)/C=C/C3=CC=CC=C3)N4CCN(CC4)C + C[C@]1(O)C[C@@H](c2nc(-c3ccc4ccc(-c5ccccc5)nc4c3)c3c(N)nccn32)C1 [Linsitinib] (partner 1 µM)
Summary of the method: as §1

Obatoclax + Vorinostat = compound: COC1=CC(c2cc3ccccc3[nH]2)=N/C1=C\c1[nH]c(C)cc1C [Obatoclax] + O=C(CCCCCCC(=O)Nc1ccccc1)NO [Vorinostat] (partner 1 µM)
Summary of the method: as §1

LOU-NH91
relative viability (Bortezomib + Alpelisib; first compound 0.0002 µM): 0.72 | relative viability (Bortezomib + Alpelisib; first compound 0.000632 µM): 0.628 | relative viability (Bortezomib + Alpelisib; first compound 0.002 µM): 0.395 | relative viability (Bortezomib + Alpelisib; first compound 0.006325 µM): 0.309 | relative viability (Bortezomib + Alpelisib; first compound 0.02 µM): 0.305 | relative viability ([1]; first compound 0.08 µM): 0.706 | relative viability ([1]; first compound 0.253 µM): 0.729 | relative viability ([1]; first compound 0.8 µM): 0.697 | relative viability ([1]; first compound 2.53 µM): 0.387 | relative viability ([1]; first compound 8 µM): 0.201 | relative viability ([2]; first compound 0.08 µM): 0.953 | relative viability ([2]; first compound 0.253 µM): 1.01 | relative viability ([2]; first compound 0.8 µM): 0.98 | relative viability ([2]; first compound 2.53 µM): 0.775 | relative viability ([2]; first compound 8 µM): 0.501 | relative viability (Obatoclax + Vorinostat; first compound 0.01 µM): 0.982 | relative viability (Obatoclax + Vorinostat; first compound 0.03162 µM): 0.889 | relative viability (Obatoclax + Vorinostat; first compound 0.1 µM): 0.709 | relative viability (Obatoclax + Vorinostat; first compound 0.3162 µM): 0.885 | relative viability (Obatoclax + Vorinostat; first compound 1 µM): 0.65

LU99A
relative viability (Bortezomib + Alpelisib; first compound 0.0002 µM): 0.424 | relative viability (Bortezomib + Alpelisib; first compound 0.002 µM): 0.466 | relative viability (Bortezomib + Alpelisib; first compound 0.006325 µM): 0.224 | relative viability (Bortezomib + Alpelisib; first compound 0.02 µM): 0.141 | relative viability ([1]; first compound 0.08 µM): 0.766 | relative viability ([1]; first compound 0.253 µM): 0.781 | relative viability ([1]; first compound 0.8 µM): 0.57 | relative viability ([1]; first compound 2.53 µM): 0.25 | relative viability ([1]; first compound 8 µM): 0.125 | relative viability ([2]; first compound 0.08 µM): 0.489 | relative viability ([2]; first compound 0.253 µM): 0.485 | relative viability ([2]; first compound 0.8 µM): 0.466 | relative viability ([2]; first compound 2.53 µM): 0.228 | relative viability ([2]; first compound 8 µM): 0.138 | relative viability (Obatoclax + Vorinostat; first compound 0.01 µM): 0.557 | relative viability (Obatoclax + Vorinostat; first compound 0.03162 µM): 0.459 | relative viability (Obatoclax + Vorinostat; first compound 0.3162 µM): 0.463 | relative viability (Obatoclax + Vorinostat; first compound 1 µM): 0.224

LXF-289
relative viability (Bortezomib + Alpelisib; first compound 0.0002 µM): 1.03 | relative viability (Bortezomib + Alpelisib; first compound 0.000632 µM): 1.01 | relative viability (Bortezomib + Alpelisib; first compound 0.002 µM): 0.946 | relative viability (Bortezomib + Alpelisib; first compound 0.006325 µM): 0.0804 | relative viability (Bortezomib + Alpelisib; first compound 0.02 µM): 0.0589 | relative viability ([1]; first compound 0.08 µM): 0.924 | relative viability ([1]; first compound 0.253 µM): 0.966 | relative viability ([1]; first compound 0.8 µM): 0.922 | relative viability ([1]; first compound 2.53 µM): 0.772 | relative viability ([1]; first compound 8 µM): 0.325 | relative viability ([2]; first compound 0.08 µM): 0.932 | relative viability ([2]; first compound 0.253 µM): 1.01 | relative viability ([2]; first compound 0.8 µM): 0.914 | relative viability ([2]; first compound 2.53 µM): 0.447 | relative viability ([2]; first compound 8 µM): 0.36 | relative viability (Obatoclax + Vorinostat; first compound 0.01 µM): 0.714 | relative viability (Obatoclax + Vorinostat; first compound 0.03162 µM): 0.725 | relative viability (Obatoclax + Vorinostat; first compound 0.1 µM): 0.798 | relative viability (Obatoclax + Vorinostat; first compound 0.3162 µM): 0.775 | relative viability (Obatoclax + Vorinostat; first compound 1 µM): 0.601

NCI-H23
relative viability (Bortezomib + Alpelisib; first compound 0.000632 µM): 0.72 | relative viability (Bortezomib + Alpelisib; first compound 0.002 µM): 0.829 | relative viability (Bortezomib + Alpelisib; first compound 0.006325 µM): 0.116 | relative viability (Bortezomib + Alpelisib; first compound 0.02 µM): 0.109 | relative viability ([1]; first compound 0.08 µM): 0.79 | relative viability ([1]; first compound 0.253 µM): 0.909 | relative viability ([1]; first compound 0.8 µM): 0.867 | relative viability ([1]; first compound 2.53 µM): 0.364 | relative viability ([1]; first compound 8 µM): 0.15 | relative viability ([2]; first compound 0.08 µM): 0.61 | relative viability ([2]; first compound 0.253 µM): 0.641 | relative viability ([2]; first compound 0.8 µM): 0.58 | relative viability ([2]; first compound 2.53 µM): 0.313 | relative viability ([2]; first compound 8 µM): 0.163 | relative viability (Obatoclax + Vorinostat; first compound 0.01 µM): 0.593 | relative viability (Obatoclax + Vorinostat; first compound 0.03162 µM): 0.755 | relative viability (Obatoclax + Vorinostat; first compound 0.1 µM): 0.569 | relative viability (Obatoclax + Vorinostat; first compound 0.3162 µM): 0.653 | relative viability (Obatoclax + Vorinostat; first compound 1 µM): 0.316

NCI-H322M
relative viability (Bortezomib + Alpelisib; first compound 0.0002 µM): 0.771 | relative viability (Bortezomib + Alpelisib; first compound 0.002 µM): 0.713 | relative viability (Bortezomib + Alpelisib; first compound 0.006325 µM): 0.731 | relative viability (Bortezomib + Alpelisib; first compound 0.02 µM): 1.38 | relative viability ([1]; first compound 0.08 µM): 1.18 | relative viability ([1]; first compound 0.253 µM): 1.41 | relative viability ([1]; first compound 0.8 µM): 1.09 | relative viability ([1]; first compound 2.53 µM): 0.802 | relative viability ([1]; first compound 8 µM): 0.318 | relative viability ([2]; first compound 0.08 µM): 0.89 | relative viability ([2]; first compound 0.253 µM): 0.965 | relative viability ([2]; first compound 0.8 µM): 0.895 | relative viability ([2]; first compound 2.53 µM): 0.515 | relative viability ([2]; first compound 8 µM): 0.323 | relative viability (Obatoclax + Vorinostat; first compound 0.01 µM): 0.845 | relative viability (Obatoclax + Vorinostat; first compound 0.03162 µM): 0.799 | relative viability (Obatoclax + Vorinostat; first compound 0.1 µM): 1.2 | relative viability (Obatoclax + Vorinostat; first compound 0.3162 µM): 0.966 | relative viability (Obatoclax + Vorinostat; first compound 1 µM): 0.945

NCI-H441
relative viability (Bortezomib + Alpelisib; first compound 0.0002 µM): 0.613 | relative viability (Bortezomib + Alpelisib; first compound 0.000632 µM): 0.58 | relative viability (Bortezomib + Alpelisib; first compound 0.002 µM): 0.19 | relative viability (Bortezomib + Alpelisib; first compound 0.006325 µM): 0.132 | relative viability (Bortezomib + Alpelisib; first compound 0.02 µM): 0.111 | relative viability ([1]; first compound 0.08 µM): 0.704 | relative viability ([1]; first compound 0.253 µM): 0.503 | relative viability ([1]; first compound 0.8 µM): 0.302 | relative viability ([1]; first compound 2.53 µM): 0.187 | relative viability ([1]; first compound 8 µM): 0.122 | relative viability ([2]; first compound 0.08 µM): 0.483 | relative viability ([2]; first compound 0.253 µM): 0.584 | relative viability ([2]; first compound 0.8 µM): 0.444 | relative viability ([2]; first compound 2.53 µM): 0.196 | relative viability ([2]; first compound 8 µM): 0.0922 | relative viability (Obatoclax + Vorinostat; first compound 0.01 µM): 0.768 | relative viability (Obatoclax + Vorinostat; first compound 0.03162 µM): 0.837 | relative viability (Obatoclax + Vorinostat; first compound 0.1 µM): 0.728 | relative viability (Obatoclax + Vorinostat; first compound 0.3162 µM): 0.733 | relative viability (Obatoclax + Vorinostat; first compound 1 µM): 0.645

NCI-H460
relative viability (Bortezomib + Alpelisib; first compound 0.0002 µM): 0.419 | relative viability (Bortezomib + Alpelisib; first compound 0.000632 µM): 0.455 | relative viability (Bortezomib + Alpelisib; first compound 0.002 µM): 0.515 | relative viability (Bortezomib + Alpelisib; first compound 0.006325 µM): 0.125 | relative viability (Bortezomib + Alpelisib; first compound 0.02 µM): 0.0093 | relative viability ([1]; first compound 0.08 µM): 1.07 | relative viability ([1]; first compound 0.253 µM): 1.58 | relative viability ([1]; first compound 0.8 µM): 0.952 | relative viability ([1]; first compound 2.53 µM): 0.0095 | relative viability ([1]; first compound 8 µM): 0.0091 | relative viability ([2]; first compound 0.08 µM): 0.668 | relative viability ([2]; first compound 0.253 µM): 0.869 | relative viability ([2]; first compound 0.8 µM): 0.539 | relative viability ([2]; first compound 2.53 µM): 0.0075 | relative viability ([2]; first compound 8 µM): 0.0036 | relative viability (Obatoclax + Vorinostat; first compound 0.01 µM): 0.706 | relative viability (Obatoclax + Vorinostat; first compound 0.03162 µM): 0.717 | relative viability (Obatoclax + Vorinostat; first compound 0.1 µM): 0.692 | relative viability (Obatoclax + Vorinostat; first compound 0.3162 µM): 0.103 | relative viability (Obatoclax + Vorinostat; first compound 1 µM): 0.0463

NCI-H520
relative viability (Bortezomib + Alpelisib; first compound 0.0002 µM): 0.981 | relative viability (Bortezomib + Alpelisib; first compound 0.000632 µM): 0.935 | relative viability (Bortezomib + Alpelisib; first compound 0.002 µM): 0.91 | relative viability (Bortezomib + Alpelisib; first compound 0.006325 µM): 0.155 | relative viability (Bortezomib + Alpelisib; first compound 0.02 µM): 0.135 | relative viability ([1]; first compound 0.08 µM): 0.985 | relative viability ([1]; first compound 0.253 µM): 1.12 | relative viability ([1]; first compound 0.8 µM): 0.889 | relative viability ([1]; first compound 2.53 µM): 0.198 | relative viability ([1]; first compound 8 µM): 0.127 | relative viability ([2]; first compound 0.08 µM): 1.01 | relative viability ([2]; first compound 0.253 µM): 0.995 | relative viability ([2]; first compound 0.8 µM): 0.664 | relative viability ([2]; first compound 2.53 µM): 0.233 | relative viability ([2]; first compound 8 µM): 0.122 | relative viability (Obatoclax + Vorinostat; first compound 0.01 µM): 0.685 | relative viability (Obatoclax + Vorinostat; first compound 0.03162 µM): 0.712 | relative viability (Obatoclax + Vorinostat; first compound 0.1 µM): 0.764 | relative viability (Obatoclax + Vorinostat; first compound 0.3162 µM): 0.542 | relative viability (Obatoclax + Vorinostat; first compound 1 µM): 0.315

From the supplement of paper PMC10307832
